In patent publication US7511133B2, “Adenosine A3 receptor agonists” (King Pharmaceuticals Research and Development, Inc., priority 2003, dated 2009):

Structure (SMILES)	melting point
CCNC(=O)[C@H]1O[C@@H](n2cnc3c(NC(=O)Nc4ccc(S(=O)(=O)N(C)C(C)C)cc4)ncnc32)C(O)C1O (stereo partly drawn) [Compound 97, 1-Deoxy-1-[6-[[[[4-[N-(1-methylethyl)-N-(methyl)-aminosulfonyl]phenyl]amino]carbo-nyl]amino]-9H-purin-9-yl]-N-ethyl-β-D-ribofuranuronamide]	140 °C
CCNC(=O)[C@H]1O[C@@H](n2cnc3c(NC(=O)Nc4ccccc4S(=O)(=O)Nc4ccc(OC)cc4)ncnc32)C(O)C1O (stereo partly drawn) [Compound 103, 1-Deoxy-N-ethyl-1-[[6-[[[2-N-(4-methoxyphenyl)-sulfonamidophenyl]amino]carbonyl]amino]-9H-purin-9-yl]-b-D-ribofuran-uronamide]	168 to 170 °C
CCCCCNS(=O)(=O)c1cccc(NC(=O)Nc2ncnc3c2ncn3[C@@H]2O[C@H](C(=O)NCC)C(O)C2O)c1 (stereo partly drawn) [Compound 104, 1-Deoxy-N-ethyl-1-[[6-[[[3-N-(pentyl)-sulfonamido-phenyl]amino]carbonyl]amino]-9H-purin-9-yl]-b-D-ribofuranuronamide]	158 to 159 °C
CCNC(=O)[C@H]1O[C@@H](n2cnc3c(NC(=O)Nc4cccc(S(=O)(=O)Nc5ccc(OC)cc5)c4)ncnc32)C(O)C1O (stereo partly drawn) [Compound 105, 1-Deoxy-N-ethyl-1-[[6-[[[3-N-(4-methoxyphenyl)-sulfonamidophenyl]amino]carbonyl]amino]-9H-purin-9-yl]-b-D-ribofuran-uronamide]	206 to 208 °C (dec.)
CCNC(=O)[C@H]1O[C@@H](n2cnc3c(NC(=O)Nc4ccccc4S(N)(=O)=O)ncnc32)C(O)C1O (stereo partly drawn) [Compound 106, 1-Deoxy-N-ethyl-1-[[6-[[(2-sulfonamidophenyl)amino]-carbonyl]amino]-9H-purin-9-yl]-b-D-ribofuranuronamide]	188 to 189 °C

Second part, the compound after the results:

melting point	Structure (SMILES)
142 to 144 °C	CCNC(=O)[C@H]1O[C@@H](n2cnc3c(NC(=O)Nc4ccccc4S(=O)(=O)N(C)C(C)C)ncnc32)C(O)C1O (stereo partly drawn) [Compound 107, 1-Deoxy-N-ethyl-1-[[6-[[[2-N-(isopropyl)-N-(methyl)-sulfonamidophenyl]amino]carbonyl]amino]-9H-purin-9-yl]-b-D-ribofuranuron-amide]
155 to 157 °C	CCCCCNS(=O)(=O)c1ccccc1NC(=O)Nc1ncnc2c1ncn2[C@@H]1O[C@H](C(=O)NCC)C(O)C1O (stereo partly drawn) [Compound 108, 1-Deoxy-N-ethyl-1-[[6-[[[2-N-(pentyl)-sulfonamido-phenyl]amino]carbonyl]amino]-9H-purin-9-yl]-b-D-ribofuranuronamide]
159 to 161 °C	CCNC(=O)[C@H]1O[C@@H](n2cnc3c(NC(=O)Nc4ccccc4S(=O)(=O)NC45C[C@H]6C[C@@H](C4)C[C@@H](C5)C6)ncnc32)C(O)C1O (stereo partly drawn) [Compound 109, 1-Deoxy-N-ethyl-1-[[6-[[[2-N-(adamantan-1-yl)-sulfonamidophenyl]amino]carbonyl]amino]-9H-purin-9-yl]-b-D-ribofuran-uronamide]
149 to 151 °C	CCNC(=O)[C@H]1O[C@@H](n2cnc3c(NC(=O)Nc4ccccc4S(=O)(=O)N4CC=CC4)ncnc32)C(O)C1O (stereo partly drawn) [Compound 110, 1-Deoxy-N-ethyl-1-[[6-[[[2-(2,5-dihydropyrrol-1-yl)sulfonylphenyl]amino]carbonyl]amino]-9H-purin-9-yl]-b-D-ribofuranuronamide]
147 to 148 °C	CCNC(=O)[C@H]1O[C@@H](n2cnc3c(NC(=O)Nc4cccc(S(=O)(=O)N(C)C(C)C)c4)ncnc32)C(O)C1O (stereo partly drawn) [Compound 112, 1-Deoxy-N-ethyl-1-[[6-[[[3-N-(isopropyl)-N-(methyl)-sulfonamidophenyl]amino]carbonyl]amino]-9H-purin-9-yl]-b-D-ribofuranuron-amide]
